Source: patent US4843161A, “Platinum-intercalative complexes for the treatment of cancer” (Massachusetts Institute of Technology, priority 1984, dated 1989)

Columns and labels:
L1210/0 = assay: antitumor activity in mice implanted intraperitoneally with L1210 (Table II); format: in vivo; parameters: Mean: unit not given beside the values; settings: d 1, 5, 9, 13
Description: The optimal dose is 15 mg/kg giving a %ILS of 51% versus control mice implanted with L1210 but not treated with the drug.

L1210/PDD = assay: antitumor activity in mice implanted with a tumor cell line resistant to cisDDP (Table III); format: in vivo; settings: q4d × 4

Work on `N.N.[Cl][Pt][Cl]` [CisDDP, cis-diamminedichloroplatinum (II)] yielded an ILS (L1210/0; first L1210/0 group, dose 3) of 34%, a Mean (L1210/0; first L1210/0 group, dose 3) of 11.9 and an ILS (L1210/0; second L1210/0 group, dose 2.0) of 26%. It also gave a Mean (L1210/0; second L1210/0 group, dose 2.0) of 11.6, an ILS (L1210/0; second L1210/0 group, dose 3.0) of 51% and a Mean (L1210/0; second L1210/0 group, dose 3.0) of 13.9. The ILS (L1210/0; second L1210/0 group, dose 4.5) was 113%, the Mean (L1210/0; second L1210/0 group, dose 4.5) was 19.6 and the ILS (L1210/PDD; dose 2.0) was 0%. The Mean (L1210/PDD; dose 2.0) was 11.0, the ILS (L1210/PDD; dose 3.0) was 0% and the Mean (L1210/PDD; dose 3.0) was 10.8. It also gave an ILS (L1210/PDD; dose 4.5) of 0% and a Mean (L1210/PDD; dose 4.5) of 11.0.
